The values below come from patent US8679478B2, “Methods of lysosomal storage disease therapy” (Duke University, priority 2010, dated 2014).

Common to all, as to type: in vivo, mouse
For assay [1], the system named is immune tolerant GAA-KO mice. Briefly: Histopathology of brain, glycogen staining. The settings on record: cerebellum; in comparison with ERT alone. As for the experimental part:
Histopathology was performed to examine brain involvement, and glycogen accumulations were detected in the cerebellum with ERT alone. Albuterol and clenbuterol each reduced the glycogen staining in the cerebellum, in comparison with ERT alone.

Assay [2] concerns GAA-KO mice. Briefly: Glycogen content in muscles, ERT plus clenbuterol or albuterol. The following applies: for glycogen content for quadriceps: p<0.001; for Glycogen content: ERT plus clenbuterol v. ERT alone. As for the experimental part: FIG. 8A-8C depicts increased GAA uptake and increased glycogen clearance in GAA-KO mice following clenbuterol treatment and ERT. […] GAA-KO mice were administered four weekly doses of rhGAA (20 mg/kg), and treated with clenbuterol (n=6) or untreated (n=5). […] Mean+/−standard deviation are shown. Statistically significant differences indicated (*=p<0.05; **=p<0.01).
GAA-KO mice were treated with weekly rhGAA (20 mg/kg): with medium clenbuterol, […] (n=6), with low clenbuterol, 1.3 mg/ml (n=6), with albuterol 30 mg/ml (n=4), or without drug treatment (n=3). Drugs were administered in the drinking water. Mean+/−s.d. shown. Statistically significant differences indicated (*=p<0.05; **=p<0.01).
(§1) For in vivo analysis of AAV vectors, stocks were administered intravenously (via the retroorbital sinus) in 3 month-old and 15 month-old GAA-KO mice, and to 3 month-old tolerant GAA-KO and DKO mice. Clenbuterol (30 μg/ml) was administered to groups of 3 month-old vector-injected and mock-injected male GAA-KO mice in drinking water for 28 days. At the indicated time points post-injection, tissue samples were obtained and processed as described below. All animal procedures were done in accordance with Duke University Institutional Animal Care and Use Committee-approved guidelines. GAA activity and glycogen content were analyzed essentially as described (Sun et al., Mol. Ther., 2005, 11:889-898; Sun et al., Mol. Ther., 2005, 11: 57-65). Rotarod testing was performed essentially as described (Sun, B. D. et al. 2005). Western blotting of hGAA was performed essentially as described (Amalfitano et al., Proc. Natl. Acad. Sci. USA, 1999, 96: 8861-8866) using the hGAA monoclonal antibody (courtesy of Genzyme Corp., Framingham, Mass.) and the CI-MPR antibody (catalog number GTX28093; Gene Tex, Irvine, Calif.).
The efficacy from gene therapy was increased by β2 agonist stimulation from clenbuterol treatment, and this benefit might be expected to affect ERT in Pompe disease, as well. Therefore, groups of 3 month-old GAA-KO mice were treated with four weekly doses of rhGAA (20 mg/kg), with or without concurrent clenbuterol treatment.

The test system of assay [3] is GAA-KO mice. Briefly: Glycogen content in tissues, gene therapy plus clenbuterol. The settings on record: vector plus clenbuterol v. vector alone. As for the experimental part: FIG. 5A-5B depicts enhanced efficacy from liver-targeted gene therapy plus clenbuterol treatment. The GAA-KO mice were injected with AAV-LSPhGAA (2×10^10 vector particles/mouse) or uninjected (5 per group). Vector-treated mice were treated with AAV-LSPhGAA and clenbuterol or with AAV-LSPhGAA alone. Untreated (mock) GAA-KO mice were used as controls. Mice were euthanized for tissue analysis 4 weeks after vector injection. […] Statistically significant differences indicated (*=p<0.05; **=p<0.01).
as §1
Based upon the implication that CI-MPR expression was crucial to both uptake and intracellular processing of GAA in Pompe disease, levels of CI-MPR in GAA-KO mice were manipulated. A related but distinct strategy for addressing the apparently limiting role of CI-MPR expression in achieving efficacy with ERT in Pompe disease involved enhancement of rhGAA glycosylation (Raben et al., Mol. Genet. Metab., 2003, 80: 159-169; Raben et al., Transgenic Res., 2003, 12: 171-178; McVie-Wylie et al., Mol. Genet. Metab., 2008, 94: 448-455). […] The vector-transduced liver depot was enhanced by the addition of a drug, clenbuterol, which increases the expression of CI-MPR in muscle (Matsumoto et al., Arch. Oral Biol., 2006 51:603-611). The liver was transduced by administering AAV-LSPhGAA (2×10^10 vector particles) to groups of 3 month-old male GAA-KO mice, and clenbuterol (30 μg/ml) was administered to groups of 3 month-old vector-injected and mock-injected male GAA-KO mice in drinking water.

The next assay deals with CI-MPR. Briefly: Western blot and densitometry of CI-MPR expression in skeletal muscle and brain. The following applies: following clenbuterol treatment. As for the experimental part: Western blot detection of CI-MPR and control proteins, β-actin or glyceraldehydes-3-phosphate dehydrogenase (GAPDH) in the tissues of GAA-KO mice is shown, with molecular weights indicated. Each lane represents an individual mouse. Equivalent quantities of tissue homogenate were loaded for each mouse. […] Mean+/−standard deviation are shown. Statistically significant differences indicated (*=p<0.05; **=p<0.01).
as §1
For orientation: A western blot detects proteins with antibodies after separation by electrophoresis.

In assay [4] the test system is immune tolerant GAA-KO mice. The assay can be described thus: Glycogen content in tissues, ERT plus β2 agonist (Example 6). As for the experimental part: Male GAA-KO mice were administered four weekly doses of 20 mg/kg body weight of rhGAA and sacrificed one week following the last injection. Groups of mice were treated with clenbuterol (n=6), albuterol (n=4) or untreated (n=6). Mice were euthanized for tissue analysis 5 weeks after initiation of ERT.
Cerebral and cerebellar hemispheres were analyzed 5 weeks following the initiation of ERT. Groups of mice were treated with clenbuterol (n=6), albuterol (n=4) or untreated (n=6).
Two β2 agonists were evaluated in combination with ERT, clenbuterol and albuterol. […] Groups of 3 month-old immune tolerant GAA-KO mice (Raben et al., Human Mol. Genet., 2001, 10:2039-2047) were treated with four weekly doses of rhGAA (20 mg/kg body weight), with or without concurrent β2 agonist treatment.
Mice were sacrificed 7 days after the last injection. Selected tissues were collected for GAA enzyme activity and glycogen content analyses. All animal procedures were done in accordance with Duke University Institutional Animal Care and Use Committee-approved guidelines. GAA activity and glycogen content analyses, Rotarod testing, and Western blot detection of CI-MPR was performed essentially as described (Koeberl et al., Mol. Genet. Metab., 2011, 103:107-112. Wire hang testing was performed with a 0.5 cm mesh hardware cloth fixed to an 8 by 10 inch frame. Mice were placed on the wire mesh, which was slowly inverted 6 inches over a cage containing paper bedding. The latency, or time until the mouse fell into the cage, was recorded.

Take `CC(C)(C)NCC(O)c1cc(Cl)c(N)c(Cl)c1` (centres unmarked) [clenbuterol]: the “glycogen staining (histopathology)” value in assay [1] is listed as “reduced”. Also, the “glycogen content for quadriceps” value in the assay with GAA-KO mice [2] (ERT plus clenbuterol 1.3 μg/ml (Low) in drinking water) and in the assay with GAA-KO mice [2] (ERT plus clenbuterol 6 μg/ml (Medium) in drinking water) was “significantly reduced” each time. Besides, the Glycogen content result in the assay on GAA-KO mice [2] (diaphragm, p=0.0002) is on record as “significantly reduced”; in the assay on GAA-KO mice [2] (quadriceps, p=0.00002) it was “significantly reduced”; with GAA-KO mice [2] (tibialis anterior, p=0.002) it was “significantly reduced”; in the assay with GAA-KO mice [3] (EDL, p=0.002), “reduced”; in the assay on GAA-KO mice [3] (cerebellum, p=0.03), “reduced”; in the assay on GAA-KO mice [3] (cerebrum, p<5×10^−5), “reduced”. In addition, the Glycogen content result is given as “reduced” in the assay on GAA-KO mice [3] (diaphragm, p=0.04); “reduced” in the assay on GAA-KO mice [3] (soleus, p=0.0006); “reduced significantly” in assay [4] (all striated muscles with the exception of tibialis anterior, clenbuterol plus ERT v. ERT alone); “reduced significantly” in assay [4] (cerebellum, β2 agonist plus ERT v. ERT alone). Moreover, the glycogen clearance entry in the assay on GAA-KO mice [2] (gastrocnemius, ERT plus clenbuterol) is given as “absence of increased glycogen clearance”. In addition, the “CI-MPR signal (densitometry of Western blots)” value in the assay on CI-MPR (EDL), in the assay on CI-MPR (cerebellum) and in the assay on CI-MPR (cerebrum) was “increased” in each case.
